Here are results for one molecule from US20240082250A1, “NEDDYLATION INHIBITION FOR USE IN THE TREATMENT OF HUMAN IMMUNODEFICIENCY VIRUS (HIV) INFECTION” (priority 2022, published 2024).

The structures appear in SMILES notation.

Assay [1] concerns Cullin 2 (CUL2) neddylation. The assay can be described thus: Immunoblot for Cullin 2 (CUL2) neddylation in ACH2 cells. The class given is cell-based. The arrangement: dose or concentration left out as unconfirmed. The settings on record: MLN, with and without TNFa reactivation.
The subject of assay [2] is HIV promoter-driven GFP expression. Nature of the assay: HIV promoter-driven GFP expression in J-Lat 6.3 cells. The format is cell-based. The settings on record: six hour MLN treatment before and during LRA exposure (TNFa, PMAi, JQ1). The text has this:
(§1) (B) MLN reduces intracellular p24 production from J-Lat 6.3 cells exposed to TNFa, as well as from ACH2 cells exposed to TNFa. […] (C) Six hour treatment of J-Lat cells (both J-Lat 6.3 and J-Lat 11.1) with MLN before and during LRA exposure reduces HIV promoter-driven GFP expression after exposure to TNFa, PMAi and JQ1.
(§2) MLN decreases reactivation of latent provirus, as shown in VIF+, replication-competent provirus, from the latently infected ACH2 T cell line based on HIV capsid p24 amounts in cell culture supernatant fluid and intracellularly after 3 different LRAs: tumor necrosis factor alpha (TNFa) at 10 ng/mL; PMA/ionomycin (PMAi) at 405 pM phorbol 12-myristate 13-acetate (PMA) and 6.7 nM ionomycin (eBiosciences™ stimulation cocktail); and JQ1 at 100 nM (FIGS. 5 and 6). […] MLN reduces intracellular p24 production from ACH2 1 cells treated with TNFa, PMAi, and JQ1, compared to DMSO control (FIG. 6A). […] HIV promoter-driven RNA is also shown to be decreased by MLN before/during TNFa or PMAi (FIG. 7). […] ACH2 cells were pretreated for 6 hours with DMSO, or MLN at […], and then reactivated with 10 ng/mL TNFa or PMA/ionomycin.

For assay [3], the system named is Cullin RING Ligase (CRL^Vif)-mediated degradation of APOBEC3G (A3G). The settings on record: ex vivo, de novo HIV infections; previously reported; cited from earlier work.
In assay [4] the test system is A3G incorporated into virions. Nature of the assay: Immunoblot of A3G in virions pelleted from ACH2 supernatant. The class given is cell-based, HIV. Conditions: ACH2 cells; MLN before and during TNFa reactivation; immunoblot of viral pellets, n=3. From the text: (§3) (B) MLN treatment of ACH2 cells before and during TNFa provirus reactivation increases the amount of A3G incorporated into virions, a strong candidate mechanism for decreased infectivity shown in (A). Virions from ACH2 cell supernatant were pelleted over a 20% sucrose cushion. […] A3G signal (black bars) and p24 signal (grey bars) from n=3 experiments are quantified on the right (Panel 2 in B).
Virions from ACH2 cell supernatant were pelleted over a 20% sucrose cushion. […] A3G signal (black bars) and p24 signal (grey bars) from n=3 experiments are quantified on the right (Panel 2) in FIG. 3B.

For assay [5], the system named is A3G. The assay can be described thus: A3G LMM/HMM distribution, sucrose density gradient and immunoblot, CD4+CD45RO+ memory T cells. The class given is cell-based. Conditions: CD4+CD45RO+ memory T cells from healthy donors, CD3/28 stimulated; 4 days, 100 nM or 200 nM MLN vs DMSO. As to the method: (§4) A3G low molecular mass forms (LMM) (fractions 1-5) and HMM complexes (fractions 7-12) are visualized by immunoblotting of fractions collected after density gradient centrifugation of a 5-40% sucrose gradient. […] (B) CD4+CD45RO+ memory T cells were isolated from healthy donors; cells were then stimulated with CD3/28 Abs (*) and cultured for 4 days with DMSO, 100 nM, or 200 nM MLN before density gradient centrifugation and immunoblotting of gradient fractions.

The test system of assay [6] is intracellular p24. Nature of the assay: Intracellular p24 production in J-Lat 6.3 cells exposed to TNFa. The class given is cell-based, HIV.
Excerpt: as §1

In assay [7] the test system is HIV promoter-driven GFP expression. Nature of the assay: HIV promoter-driven GFP expression in J-Lat 11.1 cells. The class given is cell-based. The settings on record: six hour MLN treatment before and during LRA exposure (TNFa, PMAi, JQ1).
Excerpt: as §1, §2

In assay [8] the test system is HIV capsid antigen (p24). Nature of the assay: Immunoblot of p24 in reactivated virions pelleted from J-Lat 6.3 supernatant. The class given is cell-based. The settings on record: LRA-exposed J-Lat 6.3 cells; MLN vs control.
A further assay concerns primary CD4+ T cells. The assay can be described thus: Apoptosis flow cytometry in anti-CD3/CD28-activated uninfected primary CD4+ T cells. The class given is cell-based. The settings on record: uninfected CD4+ T cells from 3 healthy donors, anti-CD3/CD28 activated 48 hrs; 200 nM MLN; at 16 hours. As to the method:
(§5) ACH2 cells were pretreated for 6 hours with 200 nM MLN prior to provirus reactivation with 10 ng/mL TNFa. 16 hours post-TNFa addition cells were collected; apoptosis was measured via flow cytometry by staining for Annexin V and SYTOX Green DNA intercalant. […] Data was collected 24 hours after TNFa addition. (C) CD4+ T cells from 3 healthy donors were activated for 48 hrs with anti-CD3/CD28 antibodies. Cells were then treated with 200 nM of MLN and apoptosis was measured after 6, 16, and 24 hrs of drug treatment using flow cytometry. * p<0.05 *** p=0.0002 (D) Expression of RNA encoding cell cycling and apoptotic targets assessed before in ACH2 cells was determined in primary CD4 T cells via RT-qPCR. Gene expression was normalized to 18S control ** p=0.0033 **** p<0.0001 A&B) n=3 donors.
(§6) ACH2 cells were treated with 200 nM MLN for 6 hours before and then during reactivation with 10 ng/mL TNFa. 16 hours post-TNFa addition, cells were collected and percentage of apoptotic cells increased with MLN treatment upon reactivation (FIG. 8A).

A further assay concerns HIV gag RNA. Nature of the assay: HIV gag RNA RT-qPCR in ACH2 cells. The format is cell-based. Conditions: MLN at before and during TNFa 10 ng/mL or PMA/ionomycin, 48 hours after reactivation, vs DMSO. As to the method:
Gag RNA is reduced in ACH2 cells as measured by RT-qPCR 48 hours after reactivation. ACH2 cells were treated with either DMSO or MLN (at […]) before and during exposure to either 10 ng/mL TNFa (plot on left) or 405 pM PMA and 6.7 nM ionomycin (eBiosciences stimulation cocktail) (plot on right); 4 separate ACH2 cell cultures were used for each plot's experiment.
as §2

A further assay relates to PUMA, NOXA, p21, p53 RNA. The assay can be described thus: RT-qPCR for apoptotic targets and cell cycle indicators in primary CD4 T cells. The format is cell-based. Conditions: MLN. As to the method:
as §5, §6

For a further assay, the system named is ACH2 cells. Nature of the assay: Annexin V / SYTOX Green apoptosis flow cytometry in ACH2 cells. Conditions: 200 nM MLN 6 hours before and during 10 ng/mL TNFa, 16 hours post-TNFa. The format is cell-based. As to the method:
as §5, §6

Assay [9] deals with HIV capsid antigen (p24). The assay can be described thus: Extracellular p24 ELISA of ACH2 culture supernatant after provirus reactivation. The class given is cell-based. The settings on record: ACH2 cells; MLN before and during LRAs (TNFa 10 ng/mL, PMA/i, JQ1), n=3 each. As to the method:
as §2

The test system of assay [10] is HIV capsid antigen (p24). Nature of the assay: Immunoblot of p24 in reactivated virions pelleted from ACH2 supernatant. The format is cell-based. The settings on record: LRA-exposed ACH2 cells; MLN vs control. As to the method: as §2
The test system of the next assay is HIV. The assay can be described thus: Infectivity of HIV reactivated from ACH2 cells, TZM-bl reporter cell luciferase assay. The format is cell-based. Conditions: ACH2 cells treated with MLN 100 nM or 200 nM before and during LRA (TNFa, PMAi, JQ1), vs DMSO, p24-normalized. As to the method: as §3
Virus infectivity was determined by infecting TZM-bl reporter cell line with p24-equivalent amounts of culture supernatant fluid (e.g., normalized to the same p24 amount, as a surrogate for inoculating the same number of virions) from cells pretreated with MLN or DMSO control and reactivated by the 3 LRAs). Supernatant infectivity was measured via luciferase activity in the form of […] (RFU) where higher RFU signifies greater infectivity. Average RFU values were normalized to the control condition (LRA alone without MLN treatment) such that maximum infectivity seen in that control condition is set to 100%.

Assay [11] relates to A3G. The assay can be described thus: A3G LMM/HMM distribution, sucrose density gradient and immunoblot, H9 cells. The format is cell-based. Conditions: 200 nM MLN for 4 or 6 days. As to the method: as §4
For assay [12], the system named is intracellular p24. Nature of the assay: Intracellular p24 production in ACH2 cells exposed to LRAs. The class given is cell-based, HIV. Conditions: ACH2 cells treated with TNFa (n=4), PMA/i (n=4), JQ1 (n=3); vs DMSO control.
Excerpt: as §1, §2

The subject of the next assay is NOXA, PUMA, p21, p53 RNA. Nature of the assay: RT-qPCR for apoptotic targets and cell cycle indicators in ACH2 cells. The format is cell-based. The settings on record: 200 nM MLN before and during 10 ng/mL TNFa, 24 hours after TNFa. Here is the method: as §5, §6

On to `NS(=O)(=O)OC[C@@H]1C[C@@H](n2ccc3c(N[C@H]4CCc5ccccc54)ncnc32)C[C@@H]1O` [MLN, pevonedistat], for which the “Cullin 2 (CUL2) neddylation” value in assay [1] is “inhibits”. Moreover, in assay [2], the “HIV promoter-driven GFP expression” value is reported as “reduces”. Also, the “CRL^Vif-mediated degradation of APOBEC3G (A3G)” value in assay [3] is “block”. Also, the “amount of A3G incorporated into virions” value in assay [4] was “increases”. In addition, the “intracellular distribution of A3G (LMM form vs HMM complexes)” value in the assay with A3G [5] was “shift to LMM form”. In the assay with intracellular p24 [6], the “intracellular p24 production” value is on record as “reduces”. Moreover, the “HIV promoter-driven GFP expression” value in assay [7] is reported as “reduces”. In addition, the “p24 antigen in pelleted reactivated virions (immunoblot)” value with HIV capsid antigen (p24) [8] is given as “reduced”. Moreover, in the assay on primary CD4+ T cells, the “apoptosis-mediated cell death (Annexin V)” value is reported as “increase”. Further, in the assay on HIV gag RNA, the “HIV gag RNA expression (RT-qPCR)” value was “reduced”. The “p53 RNA expression” value in the assay with PUMA, NOXA, p21, p53 RNA is “did not significantly increase”. Moreover, in the assay on PUMA, NOXA, p21, p53 RNA (normalized to 18S), the “NOXA gene expression (RT-qPCR)” value is reported as “increase”, the “PUMA gene expression (RT-qPCR)” value is given as “increase” and the “p21 expression (RT-qPCR)” value is given as “increase”. For the same molecule, the “percentage of cells dying from apoptosis (Annexin V)” value in the assay on ACH2 cells is “increases”. Besides, the “extracellular p24 antigen in culture supernatant fluid (ELISA)” value in the assay on HIV capsid antigen (p24) [9] is listed as “significantly reduced”. Further, the “p24 antigen in pelleted reactivated virions (immunoblot)” value with HIV capsid antigen (p24) [10] is reported as “reduced”. Also, the “infectivity of HIV in culture supernatant fluid” value in the assay with HIV is listed as “less infectious”. Moreover, in the assay with A3G [11], the “intracellular distribution of A3G (LMM form vs HMM complexes)” value is listed as “shift to LMM form”. Moreover, the “intracellular p24 production” value in the assay on intracellular p24 [12] is listed as “significantly reduces”. Besides, in the assay on NOXA, PUMA, p21, p53 RNA, the “p53 RNA expression” value is on record as “does not increase”, the “relative expression of RNA encoding NOXA” value is listed as “increased”, the “relative expression of RNA encoding PUMA” value is “increased” and the “relative expression of RNA encoding p21” value is on record as “increased”.
